Measured values from patent US8012484B2, “Method of treating ischemia reperfusion injury by inhibiting NKT cell activity” (University of Virginia Patent Foundation, priority 2007, dated 2011).
One block for each molecule: values may come before it.

Columns and labels:
[1] = tested on: invariant NKT cells in a mixed splenocyte culture; test: α-Gal-Cer stimulated IFN-γ production by iNKT cells in mixed splenocyte culture; assay type: cell-based, mice; settings: for effect of antagonist on ATL146e inhibition of α-Gal-Cer mediated IFN-γ production: 1 μM α-Gal-Cer
Experimental: (§1) FIGS. 5A-E. Inhibition by ATL146e of IFN-γ production by activated NKT cells. A) Purified NKT cells (200,000 per well) were incubated on immobilized anti-CD3 mAb in the presence of vehicle or 100 nM ATL146e. Supernatants were collected after 24 hours and IFN-γ concentrations were measured by ELISA. Data are shown as the mean±SEM from three independent experiments performed in triplicate. *p<0.01 vs. vehicle control as assessed by unpaired t-test B) Bulk splenocytes (300,000 cells per well) were incubated with 1 U/mL ADA and 1 nM-1 μM α-galactosylceramide in the presence of 100 nM ATL146e or vehicle. C) Bulk splenocytes (300,000 cells per well) were incubated with 1 U/mL ADA and 1 μM α-galactosylceramide in the presence or absence of varying concentrations of ATL146e±100 nM ZM241385 or vehicle. D) Bulk splenocytes (300,000 cells per well) were incubated with 1 U/mL ADA and 1 μM α-galactosylceramide in the presence or absence of 1 nM ATL146e±1 μM 8-SPT or vehicle. E) Purified CD4^+NK1.1^+ T cells (150,000 cells per well) were incubated with lymphocyte and NK cell-deficient splenocytes (300,000 cells per well), 1 U/mL ADA and 1 μM α-galactosylceramide in the presence or absence of 100 nM ATL146e±100 nM ZM241385. NK1.1-expressing cells were depleted from RAG 1 KO splenocytes via FACSVantage SE Turbo Sorter. Supernatants were collected after 48 hours, and IFN-γ concentrations were determined by ELISA. Data shown are from a single experiment performed in triplicate, representative of three independent experiments; error bars indicate SEM. (B-E)*p<0.01 vs. vehicle control as assessed by one way ANOVA followed by Dunnetts multiple comparison test.
(§2) Cells were washed and resuspended in RPMI 1640 medium supplemented with 10% heat-inactivated fetal bovine serum and 1% antibiotic-antimycotic (Gibco, Carlsbad, Calif.). In vitro activation of NKT cells was achieved by co-culture for 48 hours with splenocytes and 1 nM-1 μM α-Gal-Cer (KRN7000; from Kumi Miyayama of Kirin Brewery Company, Tokyo) at 37° C. in 5% CO2. Alternately, NKT cells were activated by incubation for 24 hours in 96 well plates coated with 2-10 μg/mL immobilized anti-CD3 mAb (BD Biosciences) at 37° C. in 5% CO2. All in vitro T cell activation experiments were performed with the addition of 1 U/mL adenosine deaminase (ADA) (Roche, Indianapolis, Ind.) to remove endogenous adenosine produced by the cells that may partially activate the A2AR. […]
(§3) IFN-γ concentrations in cell culture supernatants or serum samples were measured by ELISA according to the manufacturer's protocol (e-Bioscience).

[2] = tested on: purified CD4+ NK1.1+ NKT cells; test: IFN-γ release from purified NKT cells activated with α-Gal-Cer in the presence of NK cell-depleted RAG 1 KO splenocytes; assay type: cell-based, mice; settings: 1 μM α-Gal-Cer
Experimental: as §1, with “E) Purified CD4^+NK1.1^+ T cells (150,000 cells per well) were incubated with lymphocyte and NK cell-deficient splenocytes (300,000 cells per well), 1 U/mL ADA and 1 μM α-galactosylceramide in the presence or absence of 100 nM ATL146e±100 nM ZM241385. NK1.1-expressing cells were depleted from RAG 1 KO splenocytes via FACSVantage SE Turbo Sorter.” left out, “Data shown are from a single experiment performed in triplicate, representative of three independent experiments; error bars indicate SEM.” left out, “test. […]” for “test.”
as §3

[3] = tested on: hepatic IRI in WT C57BL/6 mice; test: Hepatic ischemia reperfusion injury (72 min ischemia, 24 h reperfusion): serum ALT and necrotic area; assay type: in vivo; settings: 72 min hepatic ischemia
Experimental: (§4) Mice were anesthetized by intraperitoneal injection of ketamine (100 mg/kg) and xylazine (10 mg/kg). Ambient temperature was controlled in the range of 24-26° C. and mice were placed on a 37° heating pad. Core body temperature of selected mice was monitored with a TH-8 Thermalert monitoring thermometer (Physitemp) and ranged from 35-36°. After midline laparotomy, a microaneurysm clip was applied to the hepatic triad above the bifurcation to clamp the flow of the hepatic artery, portal vein, and bile duct. After superfusion of the liver with warm saline, the peritoneum was closed during 72 min of ischemia. The peritoneum was then reopened and the microaneurysm clip was removed. […]
(§5) Following liver ischemia, blood was collected via retro-orbital bleed 24 hours after the initiation of reperfusion. Serum ALT was measured with a transaminase kit according to the manufacture's protocol (Pointe Scientific, Canton, Mich.). […] The plate was placed in a spectrophotometer preheated to 37° C., and the absorbance at […] was measured every minute for 10 minutes. The slope of the linear portion of the change in absorbance over time was used to calculate IU/L of ALT.
Mice were sacrificed and livers perfused with saline via the portal vein at various times after the initiation of reperfusion. […] Necrotic area was quantified using Adobe Photoshop software.

[4] = tested on: RAG 1 KO mice reconstituted with CD4+NK1.1+ NKT cells; test: Hepatic IRI in RAG 1 KO mice after adoptive transfer of NKT cells: serum ALT; assay type: in vivo
Experimental: as §4, with “removed. For select experiments, animals received an i.p. loading dose (1 μg/kg) of ATL146e or vehicle control immediately after the onset of reperfusion, and a primed Alzet osmotic minipump was implanted intraperitoneally.” for “removed.”
as §5

[5] = tested on: NKT cells isolated from post-ischemic mouse liver and liver-draining lymph nodes; test: Intracellular IFN-γ in NKT cells from post-ischemic liver after 2 hours of reperfusion (FACS); assay type: in vivo, mice; settings: treatment at the initiation of reperfusion
Experimental: as §4, with “removed. For select experiments, animals received an i.p. loading dose (1 μg/kg) of ATL146e or vehicle control immediately after the onset of reperfusion, and a primed Alzet osmotic minipump was implanted intraperitoneally. ATL146e (10 ng/kg/min) or vehicle was placed in the pumps and delivered until the experiment was terminated. The peritoneum was sutured and the surgical wound was closed with metal staples.” for “removed.”
Intracellular IFN-γ was detected in liver NKT cells by FACS analysis using Fix and Perm Cell Permeabilization Reagents according to the manufacturer's protocol (Caltag Laboratories, Carlsbad, Calif.).

IFN-γ = test: Serum/plasma IFN-γ 24 hours after reperfusion (ELISA); assay type: in vivo, mice; settings: 24 hours after reperfusion injury
Experimental: Mice were anesthetized by intraperitoneal injection of ketamine (100 mg/kg) and xylazine (10 mg/kg). Ambient temperature was controlled in the range of 24-26° C. and mice were placed on a 37° heating pad. Core body temperature of selected mice was monitored with a TH-8 Thermalert monitoring thermometer (Physitemp) and ranged from 35-36°. After midline laparotomy, a microaneurysm clip was applied to the hepatic triad above the bifurcation to clamp the flow of the hepatic artery, portal vein, and bile duct. After superfusion of the liver with warm saline, the peritoneum was closed during 72 min of ischemia. The peritoneum was then reopened and the microaneurysm clip was removed. For select experiments, animals received an i.p. loading dose (1 μg/kg) of ATL146e or vehicle control immediately after the onset of reperfusion, and a primed Alzet osmotic minipump was implanted intraperitoneally. ATL146e (10 ng/kg/min) or vehicle was placed in the pumps and delivered until the experiment was terminated. The peritoneum was sutured and the surgical wound was closed with metal staples. Animals were sacrificed by cervical dislocation at various time points after the initiation of reperfusion and blood was collected via retro-orbital bleed. […]
as §3

CD4+ NK1.1+ NKT cells = test: IFN-γ production by purified NKT cells activated on immobilized anti-CD3 mAb; assay type: cell-based, mice; settings: Mus musculus, 100 nM, 24 hours of incubation, read-out: inhibition of TCR-stimulated IFN-γ production
Experimental: Wild-type, A2AR KO, or IFN-γ KO C57BL/6 mice were sacrificed and spleens removed. Splenocytes were passed through a 40 μm nylon cell strainer (BD Biosciences, San Jose, Calif.) and collected in phosphate buffered saline. Red blood cells were lysed and CD4^+ T lymphocytes were isolated with mouse CD4 subset column kits (R and D Systems, Minneapolis, Minn.) resulting in >92% pure CD4^+ T cells. The column-purified cells were stained for 30 minutes with FITC-conjugated anti-mouse CD4 and PE-conjugated anti-mouse NK1.1 (eBioscience, San Diego, Calif.) and sorted using a FACSVantage SE Turbo Sorter (Becton Dickinson, Franklin Lakes, N.J.) to produce cell populations of ≧99.8% pure CD4^+NK1.1^+ T lymphocytes.
as §2, with “CO2.” for “CO2. All in vitro T cell activation experiments were performed with the addition of 1 U/mL adenosine deaminase (ADA) (Roche, Indianapolis, Ind.) to remove endogenous adenosine produced by the cells that may partially activate the A2AR.”
as §3

Structure (SMILES): Nc1nc(NCCc2ccc(O)cc2)nc2nc(-c3ccco3)nn12 [ZM241385, 4-(2-[7-amino-2-[2-furyl][1,2,4]triazolo[2,3-a][1,3,5]triazin-5-yl-amino]ethyl)phenol]
effect of antagonist on ATL146e inhibition of α-Gal-Cer mediated IFN-γ production ([1]; 100 nM antagonist, varying concentrations of ATL146e): causes a right shift in the ATL146e dose response curve
effect of antagonist on ATL146e reduction of IFN-γ ([2]; co-treatment with 100 nM antagonist): this effect was blocked

EC50 ([1]; Mus musculus, NKT, stimulated by 1 μM α-Gal-Cer, mixed splenocytes, 48 hours, read-out: EC50 of inhibition of iNKT-mediated production of IFN-γ): 0.58 nM
Structure (SMILES): CCNC(=O)C1OC(n2cnc3c(N)nc(C#CCC4CCC(C(=O)OC)CC4)nc32)C(O)C1O (stereo not shown) [ATL146e, 4-{3-[6-Amino-9-(5-ethylcarbamoyl-3,4-dihydroxy-tetrahydro-furan-2-yl)-9H-purin-2-yl]-prop-2-ynyl}-cyclohexanecarboxylic acid methyl ester]
reduction in serum ALT levels versus vehicle treated controls ([3]; 24 hours after reperfusion): approximately 58%
necrotic area ([3]; 24 hours of reperfusion, H and E staining, vehicle 79.3±3%): 6.1±0.8%
protection from tissue damage (serum ALT) ([4]; RAG 1 KO mice, 250,000 NKT cells from A2AR KO mice transferred): abolishes the effect of agonist administration
protection from tissue damage (serum ALT) ([4]; RAG 1 KO mice, 250,000 WT NKT cells transferred): protects from tissue damage only when WT cells are transferred
increase in intracellular IFN-γ expression of NKT cells (activation) [5]: significantly inhibits this activation
elevation of plasma IFN-γ concentrations (IFN-γ): diminished this elevation to a similar extent
inhibition at 0.1 µM (CD4+ NK1.1+ NKT cells): ~73%
inhibition of α-Gal-Cer stimulated IFN-γ production (in words) ([1]; 100 nM, 1 nM-1 μM α-Gal-Cer, mixed splenocyte culture, 48 hours): inhibited competently
reduction of IFN-γ derived from NKT cell activation ([2]; 100 nM ATL146e, lymphocyte-deficient NK cell-depleted RAG 1 KO splenocytes as APCs): 93%

Structure (SMILES): Cn1c(=O)c2[nH]c(-c3ccc(S(=O)(=O)O)cc3)nc2n(C)c1=O [8-SPT, 8-sulfophenyltheophylline]
effect of antagonist on ATL146e inhibition of α-Gal-Cer mediated IFN-γ production ([1]; 1 μM antagonist, 1 nM ATL146e): blocks the inhibitory effects of ATL146e
